The values that follow come from ChEMBL document CHEMBL5143537, “Quinazoline-based hydroxamic acid derivatives as dual histone methylation and deacetylation inhibitors for potential anticancer agents” (Bioorg Med Chem, 2022).

A value given as a limit tells only on which side of the number the result lay.

The target in data set [1] is Histone deacetylase 1 (Homo sapiens, UniProt Q13547). The data set can be described thus: Inhibition of recombinant human HDAC1 expressed in baculovirus infection system using Ac-peptide-AMC as substrate preincubated for 15 mins followed by substrate addition and measured after 60 mins by fluorescence assay.
The target in data set [2] is T1, Protein deacetylase HDAC6 (Homo sapiens, UniProt Q9UBN7).
T1 sequence (Q9UBN7 whole entry): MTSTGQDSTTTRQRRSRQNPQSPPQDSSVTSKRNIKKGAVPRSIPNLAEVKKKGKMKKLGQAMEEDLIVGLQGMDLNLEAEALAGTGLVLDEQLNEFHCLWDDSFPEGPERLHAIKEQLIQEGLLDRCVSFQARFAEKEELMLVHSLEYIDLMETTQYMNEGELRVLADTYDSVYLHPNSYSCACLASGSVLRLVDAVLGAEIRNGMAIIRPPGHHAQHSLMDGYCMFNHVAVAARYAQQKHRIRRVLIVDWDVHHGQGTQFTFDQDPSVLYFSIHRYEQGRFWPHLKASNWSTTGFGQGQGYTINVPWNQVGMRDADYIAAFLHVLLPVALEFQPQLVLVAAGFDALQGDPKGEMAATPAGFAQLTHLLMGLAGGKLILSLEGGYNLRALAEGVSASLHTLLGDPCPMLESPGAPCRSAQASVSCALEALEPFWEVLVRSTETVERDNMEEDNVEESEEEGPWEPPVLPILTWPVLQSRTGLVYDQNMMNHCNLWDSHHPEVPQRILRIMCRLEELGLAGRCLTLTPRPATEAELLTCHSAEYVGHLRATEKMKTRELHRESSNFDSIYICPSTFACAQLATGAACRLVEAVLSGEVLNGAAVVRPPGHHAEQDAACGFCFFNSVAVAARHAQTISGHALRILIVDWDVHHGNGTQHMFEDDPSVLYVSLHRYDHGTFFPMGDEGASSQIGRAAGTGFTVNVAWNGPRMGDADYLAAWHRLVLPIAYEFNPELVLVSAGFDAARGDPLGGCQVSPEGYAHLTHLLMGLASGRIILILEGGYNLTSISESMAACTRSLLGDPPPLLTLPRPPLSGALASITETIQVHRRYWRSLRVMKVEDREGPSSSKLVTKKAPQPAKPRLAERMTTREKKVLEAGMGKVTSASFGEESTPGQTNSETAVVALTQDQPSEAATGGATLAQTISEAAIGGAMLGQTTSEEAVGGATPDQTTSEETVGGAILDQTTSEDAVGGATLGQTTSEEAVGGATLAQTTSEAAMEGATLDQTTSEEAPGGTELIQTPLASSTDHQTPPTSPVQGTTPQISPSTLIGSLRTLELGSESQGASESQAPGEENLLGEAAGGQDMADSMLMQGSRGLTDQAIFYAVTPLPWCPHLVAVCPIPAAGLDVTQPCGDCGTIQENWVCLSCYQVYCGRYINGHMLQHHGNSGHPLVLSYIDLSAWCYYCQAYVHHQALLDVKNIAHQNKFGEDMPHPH
The data set can be described thus: Inhibition of recombinant HDAC6 (unknown origin) using Ac-peptide-AMC as substrate preincubated for 15 mins followed by substrate addition and measured after 60 mins by fluorescence assay.

The target of data set [3] is T2, Histone-lysine N-methyltransferase EHMT1 (Homo sapiens, UniProt Q9H9B1).
T2 sequence (Q9H9B1 whole entry): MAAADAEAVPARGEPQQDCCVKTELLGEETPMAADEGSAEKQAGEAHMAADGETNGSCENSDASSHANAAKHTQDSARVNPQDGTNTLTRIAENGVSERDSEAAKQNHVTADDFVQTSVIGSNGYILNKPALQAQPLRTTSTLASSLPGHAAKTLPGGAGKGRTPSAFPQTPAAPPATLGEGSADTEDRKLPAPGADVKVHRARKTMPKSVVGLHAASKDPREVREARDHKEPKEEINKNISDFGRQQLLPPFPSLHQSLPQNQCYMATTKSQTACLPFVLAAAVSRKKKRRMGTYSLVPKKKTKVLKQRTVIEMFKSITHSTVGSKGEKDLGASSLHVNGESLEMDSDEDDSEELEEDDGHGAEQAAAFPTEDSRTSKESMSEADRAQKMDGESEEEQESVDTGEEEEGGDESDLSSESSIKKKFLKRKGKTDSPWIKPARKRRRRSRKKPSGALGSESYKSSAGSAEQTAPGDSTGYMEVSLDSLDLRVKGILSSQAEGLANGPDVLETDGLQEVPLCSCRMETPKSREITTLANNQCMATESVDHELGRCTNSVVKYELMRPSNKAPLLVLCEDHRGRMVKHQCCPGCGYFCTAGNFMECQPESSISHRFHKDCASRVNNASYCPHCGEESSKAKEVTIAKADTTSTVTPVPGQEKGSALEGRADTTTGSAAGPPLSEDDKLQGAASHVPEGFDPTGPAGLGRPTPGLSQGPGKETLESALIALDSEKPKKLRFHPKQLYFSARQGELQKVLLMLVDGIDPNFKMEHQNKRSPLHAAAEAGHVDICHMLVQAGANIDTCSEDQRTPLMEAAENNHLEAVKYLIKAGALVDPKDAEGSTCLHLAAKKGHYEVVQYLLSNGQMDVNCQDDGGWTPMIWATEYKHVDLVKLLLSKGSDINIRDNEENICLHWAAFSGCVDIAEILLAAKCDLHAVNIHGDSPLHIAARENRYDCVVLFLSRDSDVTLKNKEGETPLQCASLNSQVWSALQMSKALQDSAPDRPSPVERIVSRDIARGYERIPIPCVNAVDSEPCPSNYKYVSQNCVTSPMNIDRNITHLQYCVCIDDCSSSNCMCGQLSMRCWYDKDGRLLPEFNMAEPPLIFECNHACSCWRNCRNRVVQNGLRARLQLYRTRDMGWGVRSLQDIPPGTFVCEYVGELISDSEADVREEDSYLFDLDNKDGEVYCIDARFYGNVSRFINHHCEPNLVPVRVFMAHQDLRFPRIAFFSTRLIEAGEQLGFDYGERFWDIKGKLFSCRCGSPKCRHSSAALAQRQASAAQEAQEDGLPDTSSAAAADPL
Put plainly: Inhibition of GLP (unknown origin).

The subject of data set [4] is A-431. The data set can be described thus: Antiproliferative activity against human A-431 cells measured after 72 hrs by MTT assay. The data set is classed as functional, cell-based. To be noted: A-431, 72 h. On the technique in general: Tetrazolium dyes change colour on reduction, which living cells bring about.
Data set [5] concerns HT-29. Put plainly: Antiproliferative activity against human HT-29 cells measured after 72 hrs by MTT assay. To be noted: HT-29, 72 h. The class given is functional, cell-based.
Data set [6] deals with HeLa. The data set can be described thus: Antiproliferative activity against human HeLa cells measured after 72 hrs by MTT assay. The data set is classed as functional, cell-based.
Data set [7] relates to K562. The data set can be described thus: Antiproliferative activity against human K562 cells measured after 72 hrs by MTT assay. The data set is classed as functional, cell-based. To be noted: K562, 72 h.
In data set [8] the test system is MDA-MB-231. Put plainly: Antiproliferative activity against human MDA-MB-231 cells measured after 72 hrs by MTT assay. The data set is classed as functional, cell-based. To be noted: MDA-MB-231, 72 h.
In data set [9] the test system is HCT-116. Put plainly: Antiproliferative activity against human HCT-116 cells measured after 72 hrs by MTT assay. The class given is functional, cell-based. To be noted: HCT-116, 72 h.
Data set [10] deals with HepG2. Put plainly: Antiproliferative activity against human HepG2 cells measured after 72 hrs by MTT assay. The data set is classed as functional, cell-based. To be noted: HepG2, 72 h.
Data set [11] can be described thus: Cytotoxicity against human HL7702 cells measured after 72 hrs by MTT assay. To be noted: HL7702 (L02) cells.
Data set [12] can be described thus: Half life in rat liver microsomes at 1 uM by LC-MS/MS analysis. The class given is ADME, Microsome. (In general: Liver microsomes are vesicles of endoplasmic reticulum, rich in cytochrome P450 enzymes.)
The nature of data set [13]: Intrinsic clearance in rat liver microsomes at 1 uM by LC-MS/MS analysis. The data set is classed as ADME, Microsome. To be noted: read-out: CLH.

Histone deacetylase 1, sequence (Q13547 whole entry): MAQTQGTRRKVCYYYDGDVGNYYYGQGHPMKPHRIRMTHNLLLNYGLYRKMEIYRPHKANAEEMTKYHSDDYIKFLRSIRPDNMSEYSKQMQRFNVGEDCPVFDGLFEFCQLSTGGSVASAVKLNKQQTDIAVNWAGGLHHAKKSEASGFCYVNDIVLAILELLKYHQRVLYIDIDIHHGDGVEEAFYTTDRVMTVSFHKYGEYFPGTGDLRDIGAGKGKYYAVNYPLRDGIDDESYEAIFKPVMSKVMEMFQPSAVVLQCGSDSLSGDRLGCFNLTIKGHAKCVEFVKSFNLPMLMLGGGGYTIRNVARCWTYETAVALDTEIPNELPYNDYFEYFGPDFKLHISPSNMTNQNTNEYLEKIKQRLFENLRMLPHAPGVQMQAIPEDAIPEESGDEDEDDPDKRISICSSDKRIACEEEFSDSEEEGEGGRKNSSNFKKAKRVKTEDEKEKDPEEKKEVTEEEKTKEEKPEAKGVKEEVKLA

Take `COc1cc2nc(NCCCCCC(=O)NO)nc(NC3CCN(C(C)C)CC3)c2cc1OC`: the IC50 is 0.0084 µM in data set [1]; 0.131 µM in data set [2]; 0.097 µM in data set [3]; over 50 µM in [4]; 47.4 µM in [5]; 37.4 µM in data set [6]. Besides, the IC50 in data set [7] was over 50 µM; in data set [8], over 50 µM; in data set [9], 25.7 µM; in data set [10] it was over 50 µM. In [11], the IC50 at 72 h is over 50 µM.

For the compound `COc1cc2nc(NCCCCCC(=O)NO)nc(NC3CCN(C)CC3)c2cc1OC`, the IC50 stood at 0.0013 µM in data set [1]; 0.051 µM in data set [2]; 0.011 µM in data set [3]; 5.86 µM in data set [4]; 5.31 µM in [5]; 6.39 µM in data set [6]. Moreover, the half-maximal inhibitory concentration (IC50) in data set [7] was determined as 9.21 µM; in data set [8], 44.2 µM; in data set [9], 6.93 µM; in [10], 13.4 µM. In [11], this compound showed an IC50 at 72 h of 31.7 µM.

Take `COc1cc2nc(N3CCN(CCCCCC(=O)NO)CC3)nc(NC3CCN(C(C)C)CC3)c2cc1OC`: the IC50 in data set [1] was 0.051 µM; in data set [2] it was 0.024 µM; in data set [3], 0.0016 µM; in [4], over 50 µM; in data set [5] it was 8 µM; in data set [6], 29.7 µM. Moreover, the IC50 was 10.1 µM in data set [7], over 50 µM in [8], over 50 µM in [9] and 12.1 µM in data set [10]. In data set [11], the IC50 at 72 h is over 50 µM.

With `COc1cc2nc(NCCCCCCC(=O)NO)nc(NC3CCN(C(C)C)CC3)c2cc1OC`, the IC50 in data set [1] was found to be 0.0042 µM; in data set [2], 0.012 µM; in [3], 0.011 µM; in data set [4] it was 23.1 µM; in data set [5], 4.21 µM; in data set [6] it was 17.4 µM. The IC50 in [7] was 5.21 µM; in [8], over 50 µM; in data set [9] it was 3.75 µM; in [10] it was 4.72 µM. 12.7 µM corresponded to half-maximal inhibition in data set [11] (IC50 at 72 h).

As to `COc1cc2nc(N3CCN(Cc4ccc(/C=C/C(=O)NO)cc4)CC3)nc(NC3CCN(Cc4ccccc4)CC3)c2cc1OC`, the 50% inhibitory concentration (IC50) is 0.094 µM in data set [1]; 0.05 µM in data set [2]; 0.19 µM in [3]; over 50 µM in data set [4]; over 50 µM in [5]; over 50 µM in data set [6]. Besides, the IC50 in data set [7], in data set [8], in data set [9] and in data set [10] was over 50 µM throughout. In data set [11], this compound showed an IC50 at 72 h of over 50 µM.

In the case of `COc1cc2nc(NCCCCCC(=O)NO)nc(NC3CCN(Cc4ccccc4)CC3)c2cc1OC`, the IC50 is 0.0032 µM in data set [1]; 0.017 µM in data set [2]; 0.0092 µM in data set [3]; 16.9 µM in [4]; 12.9 µM in data set [5]; 8.85 µM in data set [6]. Further, the concentration for half-maximal inhibition (IC50) turned out to be 7.89 µM in data set [7], 7.89 µM in data set [8], 44.5 µM in data set [9] and 2.13 µM in data set [10]. This compound showed an IC50 at 72 h in data set [11] of 19.8 µM.

In the case of `COc1cc2nc(NCCCCCCC(=O)NO)nc(NC3CCN(C)CC3)c2cc1OC`, the IC50 in data set [1] is 0.0058 µM; in [2], 0.016 µM; in data set [3], 0.021 µM; in data set [4], over 50 µM; in data set [5], 12.9 µM; in data set [6], 9.49 µM. For the same compound, the IC50 in data set [7] was 17 µM; in [8], over 50 µM; in data set [9], over 50 µM; in data set [10], 6.76 µM. Besides, the half-maximal inhibitory concentration (IC50) at 72 h in data set [11] was over 50 µM.

In data set [12], `O=C(c1ccc(F)cc1)C1CCN(CCn2c(=O)[nH]c3ccccc3c2=O)CC1` [KETANSERIN] showed a half-life at 1 µM of 16.2 min. For the same compound, in [13], the CLint scaled at 1 µM is 153 mL/min/kg.

In the case of `COc1cc2c(NC3CCN(C(C)C)CC3)nc(N3CCC(F)(F)CC3)nc2cc1OCCCN1CCCC1`, the IC50 in data set [4] turned out to be 3.38 µM; in data set [5], 1.35 µM; in [6], 1.74 µM; in data set [7], 0.92 µM; in data set [8], 3.23 µM; in data set [9], 5.01 µM. This compound showed an IC50 in [10] of 2.69 µM. It took 3.23 µM to reach half-maximal inhibition in data set [11] (IC50 at 72 h).

By IC50 is commonly meant the midpoint of a concentration-inhibition curve. In general, half-life refers to the time needed for the level to fall by half in the phase considered. Low values mean rapid decline, high ones slow decline.
